According to patent US20240082282A1 (priority 2020, published 2024):
Read-outs that look alike come from different tables or passages of the source.

Tests used:
[1] = system: FaDu, HepG2 and HEK293-RFP cells; conditions: a number of human cell lines
[2] = system: Borrelia burgdorferi (B31, N40, 297); assay type: cell-based
[3] = system: B. burgdorferi hygromycin A resistant mutant KLEx2; assay: RNAseq of hygromycin A treated vs untreated cells; assay type: cell-based; conditions: for log2 Fold Change: 4 ug/ml hygromycin A vs untreated
E. coli ribosomes = assay: Toeprinting / in vitro translation, affinity to ribosome; assay type: biochemical
E. coli WT BW25113 = assay: MIC of E. coli mutant strains
HEK293 = conditions: HEK293, alamar blue, 72 hours
[4] = system: E. coli WT-Pore (hyperporinated); assay: MIC of E. coli mutant strains
[5] = system: Brachyspira (formerly Treponema) hyodysenteriae; conditions: report of a group from Japan; cited from earlier work
[6] = system: Alkalispirochaeta americana DSM 14872
[7] = system: Borrelia burgdorferi BbP1286
FaDu = conditions: alamar blue, 72 hours
[8] = system: GFP-inducible B. burgdorferi strain pCRW53; assay: Measurement of protein synthesis inhibition (GFP, FACS); assay type: cell-based

Hygromycin A
EC50 (cytotoxicity) [1]: > 512 | MIC ([2]; B. burgdorferi): 0.25 µg/mL | MIC ([2]; Borrelia burgdorferi (B31, N40, 297)): 0.25 µg | MIC ([2]; wild type B. burgdorferi (FIG. 7B)): 0.25 µg/mL | log2 Fold Change ([3]; gene 16S): −1.80 | log2 Fold Change ([3]; gene BBC10): −8.07 | log2 Fold Change ([3]; gene BBC11): −7.92 | log2 Fold Change ([3]; gene BB_0183): −1.46 | log2 Fold Change ([3]; gene BB_0206): 1.07 | log2 Fold Change ([3]; gene BB_0212): −1.15 | log2 Fold Change ([3]; gene BB_0731): −1.01 | log2 Fold Change ([3]; gene BB_0758): 1.32 | log2 Fold Change ([3]; gene BB_0839): −1.15 | log2 Fold Change ([3]; gene BB_0844): −1.41 | log2 Fold Change ([3]; gene BB_A07): −1.23 | log2 Fold Change ([3]; gene BB_A34): 1.06 | log2 Fold Change ([3]; gene BB_B13): 1.12 | log2 Fold Change ([3]; gene BB_H41): −2.37 | log2 Fold Change ([3]; gene BB_I18): 1.16 | log2 Fold Change ([3]; gene BB_J11): 1.02 | log2 Fold Change ([3]; gene BB_J17): 1.43 | log2 Fold Change ([3]; gene BB_J27): 1.18 | log2 Fold Change ([3]; gene BB_J31): 1.22 | log2 Fold Change ([3]; gene BB_J45): 1.22 | log2 Fold Change ([3]; gene BB_K42): −1.05 | log2 Fold Change ([3]; gene BB_L03): 1.06 | log2 Fold Change ([3]; gene BB_N03): 1.15 | log2 Fold Change ([3]; gene BB_N04): 1.06 | log2 Fold Change ([3]; gene BB_O18): −1.04 | log2 Fold Change ([3]; gene BB_P03): 1.06 | log2 Fold Change ([3]; gene BB_U05): −1.14 | log2 Fold Change ([3]; gene bmpD): −1.67 | log2 Fold Change ([3]; gene glpK): −1.62 | log2 Fold Change ([3]; gene tRNA-Cys-1): −1.17 | Decrease in the expression of bmpD ([3]; transcriptome of hygromycin A treated KLEX2 cells vs untreated): 2.78 fold | Kd (E. coli ribosomes; E. coli ribosomes, inferred from in vitro translation arrest, read-out: Kd of binding to the ribosome): < 10 nM | Arrest of in vitro translation of model ORFs (E. coli ribosomes; lowest concentration tested, 0.6 μM): complete arrest of translation | MIC (E. coli WT BW25113): 512 µg/mL | IC50 (HEK293): >512 µg/mL | MIC [4]: 512 µg/mL | Maximal non-toxic dose tested relative to minimal efficacious dose (500 mg/kg vs minimal efficacious dose): 10 fold | Toxicity at maximal dose tested (C3H mice, 500 mg/kg, preliminary data): absence of toxicity | Signs of toxicity (any of the doses used in the efficacy experiments (IP, gavage, bait)): no signs of toxicity | Indications of toxicity (even at very high doses): no indications of toxicity | Biosafety window (preliminary testing): > 500 mg/kg | Treatment of pig dysentery [5]: showed efficacy | MIC ([6]; Alkalispirochaeta americana): 0.5 µg | Minimum inhibitory concentration (MIC) ([6]; Alkalispirochaeta americana DSM 14872, anaerobic): 0.5 µg/mL | MIC ([7]; Borrelia burgdorferi BbP1286): 0.12 µg | Minimum inhibitory concentration (MIC) ([7]; Borreliella burgdorferi P1286, microaerophilic): 0.12 µg/mL | IC50 (FaDu): >512 µg/mL | GFP level as compared to control (protein synthesis) [8]: dramatically lower level of GFP
